In patent US12458640B2, “Pyrazolo[3,4-b]pyrazine SHP2 phosphatase inhibitors” (OTSUKA PHARMACEUTICAL CO., LTD., priority 2019, dated 2025):
Structures can show the parent of a compound that is named as a salt.

Columns and labels:
SHP2 = SHP2 (Homo sapiens (Human), UniProt Q06124); experiment: Shp2 Biochemical Assay (DiFMUP conversion); conditions: for IC50: 10 pM SHP2, activating peptide pIRS1, DiFMUP substrate, average where more than one data point
Description: SHP2 activity was monitored by measuring the conversion of the surrogate substrate 6,8-difluoromethylumbelliferyl phosphate (DiFMUP) to the fluorescent product, 6,8-difluoromethylumbelliferone (DiFMU).
SHP2 was pre-incubated with test compounds and the activating peptide pIRS1 (H2N-LN(pY)IDLDLV-(PEG)8-LST(pY)ASINFQK-amide) for 30 min, prior to addition of the 6,8-difluoromethylumbelliferyl phosphate (DiFMUP), (Thermo Fisher D6567). Final assay concentrations were 10 pM SHP2, 0.25 μM pIRS1 peptide, 50 μM DiFMUP, 25 mM Bis-Tris propane, pH 7.0, 150 mM NaCl, 0.05% (v/v) Tween-20, 0.5 mM TCEP and 5% (v/v) DMSO. Rates of reaction were then measured over 30 min by monitoring fluorescence on a BMG Pherastar reader at excitation 360 nm/emission 450 nm. IC50 values were calculated from the normalized dose-response plots using four parameter logistic curve fit.

pERK = experiment: Cellular pERK Inhibition Assay (phospho-p44/42 MAPK sandwich ELISA); assay type: cell-based; conditions: Homo sapiens; HCC827 cells, 0.5 hours compound treatment; average where more than one data point
Description: Cellular pERK Inhibition Assay
HCC827 cells (ATCC, Manassas, USA) were seeded into 96-well plates at a density of 1×10^5 cells/well in RPMI medium supplemented with 10% FBS and incubated 24 h. Compounds were diluted first in DMSO and then into serum-free medium, before being added to cells in triplicate to give a final concentration of 0.1% DMSO. Plates were incubated at 37° C. for 0.5 hours in a humidified atmosphere of 5% CO2 in air.
Following compound treatment, medium was removed and cells were lysed by adding 50 μL of lysis buffer (Cell Signalling Technology, Beverly, USA) to each well. Plates were then incubated at room temperature for 25 minutes with shaking. pERK levels were measured in lysates using the PathScan® phospho-p44/42 MAPK (Thr202/Tyr204) sandwich ELISA (Cell Signalling Technology, Beverly, USA) as per kit instructions. Briefly, 50 μL of cell lysate was added to 50 μL of ELISA sample diluent in a 96-well ELISA plate and incubated overnight at 4° C. Following washing, 100 μL of detection antibody was added per well and the plates incubated for 1 hour at 37° C. Plates were washed again and incubated at 37° C. for 30 minutes with 100 μl of HRP-linked secondary antibody per well. After final washing, 100 μL per well of TMB substrate was added and plates incubated at 37° C. to develop colour. Colour development was stopped by the addition of 100 μL per well of stop solution. Plates were read at 450 nm on a SpectraMax Gemini reader (Molecular Devices, Uckfield, UK).
The average signal from blank wells (no cells added) was subtracted from the signals from each sample well. Levels of pERK were then expressed as “percent of control”, using DMSO treated samples as control. Dose response curves were generated using GraphPad Prism Version 6 (GraphPad Software, La Jolla, USA) and fitted using the four parameter logistic curve fit.

Row | SMILES | IC50 (SHP2) [µM] | IC50 (pERK) [µM] | inhibition at 0.01 µM (SHP2; at 0.010 μM, read-out: SHP2 % inhibition at given concentration) [%] | inhibition at 0.03 µM (SHP2; at 0.030 μM, read-out: SHP2 % inhibition at given concentration) [%]
1 | Cn1nc2ccc(-c3n[nH]c4nc(N5CCC6(CC5)CC(F)(F)C[C@H]6N)c(CO)nc34)c(Cl)c2c1Cl [Example 16, {6-[(1R)-1-amino-3,3-difluoro-8-azaspiro[4.5]decan-8-yl]-3-(3,4-dichloro-2-methyl-2H-indazol-5-yl)-1H-pyrazolo[3,4-b]pyrazin-5-yl}methanol] | 0.007 | 0.0062 |  | 
2 | Cn1nc2ccc(-c3n[nH]c4nc(N5CCC6(CC5)C[C@H](F)C[C@H]6N)c(CO)nc34)c(Cl)c2c1Cl [Example 20, {6-[(1R,3S)-1-amino-3-fluoro-8-azaspiro[4.5]decan-8-yl]-3-(3,4-dichloro-2-methyl-2H-indazol-5-yl)-1H-pyrazolo[3,4-b]pyrazin-5-yl}methanol] | 0.0071 | 0.0041 |  | 
3 | C[C@@H]1OCC2(CCN(c3nc4[nH]nc(-c5ccccc5Cl)c4nc3CO)CC2)[C@@H]1N [Example 24, {6-[(3S,4S)-4-amino-3-methyl-2-oxa-8-azaspiro[4.5]decan-8-yl]-3-(2-chlorophenyl)-1H-pyrazolo[3,4-b]pyrazin-5-yl}methanol] | 0.011 | 0.0064 |  | 
4 | Cc1nc2c(-c3ccc4nn(C)cc4c3Cl)n[nH]c2nc1N1CCC2(CC1)C[C@@H](C(F)(F)F)C[C@H]2N [Example 1, (1R,3R)-8-[3-(4-chloro-2-methyl-2H-indazol-5-yl)-5-methyl-1H-pyrazolo[3,4-b]pyrazin-6-yl]-3-(trifluoromethyl)-8-azaspiro[4.5]decan-1-amine hydrochloride] | 0.02 | 0.074 |  | 
5 | COc1cnc2ccc(-c3n[nH]c4nc(N5CCC6(CC5)CO[C@@H](C)[C@H]6N)c(C)nc34)c(Cl)c2n1 [Example 9, (3S,4S)-8-[3-(5-chloro-3-methoxyquinoxalin-6-yl)-5-methyl-1H-pyrazolo[3,4-b]pyrazin-6-yl]-3-methyl-2-oxa-8-azaspiro[4.5]decan-4-amine hydrochloride] | 0.018 | 0.045 |  | 
6 | Cc1nc2c(-c3ccc4nn(C)cc4c3Cl)n[nH]c2nc1N1CCC2(CC1)CO[C@@H](C)[C@H]2N [Example 6, (3S,4S)-8-[3-(4-Chloro-2-methyl-2H-indazol-5-yl)-5-methyl-1H-pyrazolo[3,4-b]pyrazin-6-yl]-3-methyl-2-oxa-8-azaspiro[4.5]decan-4-amine] | 0.018 | 0.012 |  | 
7 | Cc1nc2c(-c3ccc4nn(C)cc4c3Cl)n[nH]c2nc1N1CCC2(CC1)CC(F)(F)C[C@H]2N [Example 2, (1R)-8-[3-(4-chloro-2-methyl-2H-indazol-5-yl)-5-methyl-1H-pyrazolo[3,4-b]pyrazin-6-yl]-3,3-difluoro-8-azaspiro[4.5]decan-1-amine hydrochloride] | 0.017 | 0.081 |  | 
8 | Cn1cc2c(Cl)c(-c3n[nH]c4nc(N5CCC6(CC5)CC(F)(F)C[C@H]6N)c(CO)nc34)ccc2n1 [Example 7, {6-[(1R)-1-amino-3,3-difluoro-8-azaspiro[4.5]decan-8-yl]-3-(4-chloro-2-methyl-2H-indazol-5-yl)-1H-pyrazolo[3,4-b]pyrazin-5-yl}methanol] | 0.011 | 0.0063 |  | 
9 | CCn1cc2c(Cl)c(-c3n[nH]c4nc(N5CCC6(CC5)COC[C@H]6N)c(C)nc34)ccc2n1 [Example 5, (4S)-8-[3-(4-chloro-2-ethyl-2H-indazol-5-yl)-5-methyl-1H-pyrazolo[3,4-b]pyrazin-6-yl]-2-oxa-8-azaspiro[4.5]decan-4-amine] | 0.0076 | 0.046 |  | 
10 | Cc1c2c(Cl)c(-c3n[nH]c4nc(N5CCC6(CC5)CO[C@@H](C)[C@H]6N)c(CO)nc34)ccc2nn1C [Example 21, {6-[(3S,4S)-4-amino-3-methyl-2-oxa-8-azaspiro[4.5]decan-8-yl]-3-(4-chloro-2,3-dimethyl-2H-indazol-5-yl)-1H-pyrazolo[3,4-b]pyrazin-5-yl}methanol] | 0.015 | 0.0057 |  | 
11 | C[C@@H]1OCC2(CCN(c3nc4[nH]nc(-c5cccc(Cl)c5F)c4nc3CO)CC2)[C@@H]1N [Example 23, {6-[(3S,4S)-4-amino-3-methyl-2-oxa-8-azaspiro[4.5]decan-8-yl]-3-(3-chloro-2-fluorophenyl)-1H-pyrazolo[3,4-b]pyrazin-5-yl}methanol] | 0.0054 | 0.0058 |  | 
12 | COc1cnc2ccc(-c3n[nH]c4nc(N5CCC6(CCC[C@H]6N)CC5)c(C)nc34)c(Cl)c2n1 [Example 14, (1R)-8-[3-(5-chloro-3-methoxyquinoxalin-6-yl)-5-methyl-1H-pyrazolo[3,4-b]pyrazin-6-yl]-8-azaspiro[4.5]decan-1-amine] | 0.013 | 0.15 |  | 

Further lines, results first:

Row | IC50 (SHP2) [µM] | IC50 (pERK) [µM] | inhibition at 0.01 µM (SHP2; at 0.010 μM, read-out: SHP2 % inhibition at given concentration) [%] | inhibition at 0.03 µM (SHP2; at 0.030 μM, read-out: SHP2 % inhibition at given concentration) [%] | SMILES
13 |  | 0.095 | 35 |  | COc1cnc2ccc(-c3n[nH]c4nc(N5CCC6(CC5)COC[C@H]6N)c(C)nc34)c(Cl)c2n1 [Example 13, (4S)-8-[3-(5-chloro-3-methoxyquinoxalin-6-yl)-5-methyl-1H-pyrazolo[3,4-b]pyrazin-6-yl]-2-oxa-8-azaspiro[4.5]decan-4-amine]
14 |  | 0.032 |  | 66 | Cc1nc2c(-c3ccc4ncc(N(C)C)nc4c3Cl)n[nH]c2nc1N1CCC2(CC1)COC[C@H]2N [Example 11, (4S)-8-{3-[5-chloro-3-(dimethylamino)quinoxalin-6-yl]-5-methyl-1H-pyrazolo[3,4-b]pyrazin-6-yl}-2-oxa-8-azaspiro[4.5]decan-4-amine]
15 | 0.019 | 0.017 |  |  | Cc1nc2c(-c3ccc4ncc(N(C)C)nc4c3Cl)n[nH]c2nc1N1CCC2(CC1)CO[C@@H](C)[C@H]2N [Example 10, (3S,4S)-8-{3-[5-chloro-3-(dimethylamino)quinoxalin-6-yl]-5-methyl-1H-pyrazolo[3,4-b]pyrazin-6-yl}-3-methyl-2-oxa-8-azaspiro[4.5]decan-4-amine]
16 | 0.015 | 0.033 |  |  | Cc1nc2c(-c3ccc4ncc(N(C)C)nc4c3Cl)n[nH]c2nc1N1CCC2(CCC[C@H]2N)CC1 [Example 12, 7-(6-[(1R)-1-amino-8-azaspiro[4.5]decan-8-yl]-5-methyl-1H-pyrazolo[3,4-b]pyrazin-3-yl}-8-chloro-N,N-dimethyl-quinoxalin-2-amine]
17 | 0.0056 | 0.04 |  |  | Cc1nc2c(-c3ccc4nn(C)cc4c3Cl)n[nH]c2nc1N1CCC2(CC1)COC[C@H]2N [Example 3, (4S)-8-[3-(4-chloro-2-methyl-2H-indazol-5-yl)-5-methyl-1H-pyrazolo[3,4-b]pyrazin-6-yl]-2-oxa-8-azaspiro[4.5]decan-4-amine]
18 | 0.014 | 0.0053 |  |  | C[C@@H]1OCC2(CCN(c3nc4[nH]nc(-c5ccc6ncc(N(C)C)nc6c5Cl)c4nc3CO)CC2)[C@@H]1N [Example 17, {6-[(3S,4S)-4-amino-3-methyl-2-oxa-8-azaspiro[4.5]decan-8-yl]-3-[5-chloro-3-(dimethylamino)quinoxalin-6-yl]-1H-pyrazolo[3,4-b]pyrazin-5-yl}methanol]
19 | 0.0053 |  |  |  | Cc1nc2c(-c3ccc4nn(C)c(Cl)c4c3Cl)n[nH]c2nc1N1CCC2(CC1)COC[C@H]2N [Example 4, (4S)-8-[3-(3,4-dichloro-2-methyl-2H-indazol-5-yl)-5-methyl-1H-pyrazolo[3,4-b]pyrazin-6-yl]-2-oxa-8-azaspiro[4.5]decan-4-amine]
